Data as given in patent US11685713B2, “Small molecule SHC blockers used for treating liver disease and metabolic disease” (Buto Corporation, priority 2019, dated 2023).

Experiments:
[1] = system: Methionine Choline-Deficient (MCD) Mouse model NASH; test: Liver fibrosis markers in the MCD model of Non-alcoholic Steatohepatitis (NASH); type: in vivo; details: mice, MCD 8 weeks, 20 mg/kg orally the last 4 weeks, vs placebo
Protocol: Mice were fed the Liver fibrosis-inducing Methionine Choline-Deficient (MCD) Mouse model NASH for 8 weeks, and the last 4 weeks they were dosed orally with 20 mg/kg of compound number 3 (RTX60933293), compound number 5 (RTX73145433), or placebo. After 8 weeks of MCD dosing, mice were sacrificed, and livers were extracted for nucleic acids and classical markers of liver fibrosis were assayed by QRTPCR.
Without wishing to be bound by theory, NASH could be considered the next-most common metabolic disturbance after Type 2 Diabetes in the USA, and currently has no approved treatment. There is a usual progression from NAFLD (fatty liver) to the more fibrotic/cirrhotic NASH. While the precise mechanism of the transition of NAFLD to NASH is not completely understood, hepatocyte death and resulting fibrosis has been proposed. Fibrosis and fibrotic scarring are thought to be the most important pathophysiological endpoints to end-stage NASH, which typically necessitates an expensive and difficult liver transplant. As shown in other examples, Shc blockers through their sensitization to insulin, IGF-1 and other growth factors, are cytoprotective. Thus, by inhibiting hepatocyte death which promotes fibrosis, they should also be anti-fibrotic.

[2] = system: Methionine Choline-Deficient (MCD) Mouse model NASH; test: as above; type: in vivo; details: mice, MCD 8 weeks, 20 mg/kg orally the last 4 weeks, vs placebo; remark: listed apart in the source
[3] = system: Corticosterone model of Insulin resistance; test: Glucose Tolerance Test in the Corticosterone model of Insulin resistance; type: in vivo, mice; details: for glucose tolerizing effect in the Corticosteroid model: FIG. 3, summary in Example 1E; for GTT: glucose intolerance at time points after glucose administration / GTT Area Under the Curve (AUC): glucose intolerance relative to placebo: mice, corticosterone 21 days, 10 mg/kg i.p. for the final 5 days; for GTT: glucose intolerance at time points after glucose administration: FIG. 3 A/B; for GTT Area Under the Curve (AUC): glucose intolerance relative to placebo: FIG. 3 C
Protocol: In a standard model of glucose intolerance and insulin insensitivity, corticosterone (CS) was dosed for 21 days, and in the drug treated group mice were administered Shc Blocker #3=RTX60933293 or #5=RTX73145433 at a dose of 10 mg/kg i.p. for the final 5 days of the 21-day CS treatment. […] By blocking the interaction of Shc protein with phosphotyrosines on the Insulin Receptor, a Shc blocker redirects more signaling to the insulin-sensitizing and glucose tolerizing phospho-Akt. Thus, peripheral cells become more sensitive per molecule insulin, and consequently more glucose tolerant. This prediction is borne out in the Corticosteroid model. Corticosterone is a known model of Type 2 Diabetes and Metabolic Syndrome, as Corticosterone induces peripheral insulin insensitivity.

| Compound | Collagen 1a1 (Col1), liver, QRTPCR [1] | Matrix Metalloproteinase 2 (MMP2), liver, QRTPCR [1] | Tissue metallopeptidase inhibitor 1 (TIMP1), liver, QRTPCR [1] | Transforming Growth Factor beta (TGF-b), liver, QRTPCR [1] | alpha-smooth muscle actin (aSMA), liver, QRTPCR [1] | liver fibrosis bio marker hydroxyproline [2] | glucose tolerizing effect in the Corticosteroid model [3] | GTT: glucose intolerance at time points after glucose administration [3] | GTT Area Under the Curve (AUC): glucose intolerance relative to placebo [3] |
| --- | --- | --- | --- | --- | --- | --- | --- | --- | --- |
| O=C(c1cccc(-n2cccc2)c1)N1CCOC(c2cccc(OC(F)F)c2)C1 (stereo not drawn) [Compound 5] | significantly reduced | significantly reduced | significantly reduced | significantly reduced | significantly reduced | significantly reduced | significantly glucose tolerizing | reduced glucose significantly at 2 time points | significantly reduced glucose intolerance |
| O=C(NCCS(=O)(=O)Cc1ccccc1)N1CC=C(c2cccc3ccccc23)C1 [Compound 3] | significantly reduced | significantly reduced | significantly reduced | significantly reduced | significantly reduced | significantly reduced | significantly glucose tolerizing | reduced glucose intolerance significantly at 4 time points | significantly reduced glucose intolerance |
